What was measured:
Assay in all cases: Test D pre-/postemergence plant response
Assay type in all cases: in vivo
[1] = test system: barnyardgrass (Echinochloa crus-galli)
Source text: (§1) Seeds of plant species selected from bermudagrass (Cynodon dactylon), Surinam grass (Brachiaria decumbens), large crabgrass (Digitaria sanguinalis), green foxtail (Setaria viridis), goosegrass (Eleusine indica), johnsongrass (Sorghum halepense), kochia (Kochia scoparia), morningglory (pitted morningglory, Ipomoea lacunosa), nutsedge (purple nutsedge, Cyperus rotundus), ragweed (common ragweed, Ambrosia elatior), black mustard (Brassica nigra), guineagrass (Panicum maximum), dallisgrass (Paspalum dilatatum), barnyardgrass (Echinochloa crus-galli), sandbur (southern sandbur, Cenchrus echinatus), sowthistle (common sowthistle, Sonchus oleraceous), prickly sida (Sida spinosa), Italian ryegrass (Lolium multiflorum), purslane (common purslane, Portulaca oleracea), signalgrass (broadleaf signalgrass, Brachiaria platyphylla), groundsel (common groundsel, Senecio vulgaris), chickweed (common chickweed, Stellaria media), dayflower (Virginia (VA) dayflower, Commelina virginica), bluegrass (annual bluegrass, Poa annua), naked crabgrass (Digitaria nuda), itchgrass (Rottboellia cochinchinensis), quackgrass (Elytrigia repens), field bindweed (Convolvulus arvensis), spanishneedles (Bidens bipinnata), mallow (common mallow, Malva sylvestris) and Russian thistle (Salsola kali), were planted into a blend of loam soil and sand and treated preemergence with test chemicals formulated in a non-phytotoxic solvent mixture which included a surfactant. At the same time, plants from these weed species were treated with postemergence applications of the test chemicals formulated in the same manner. Plants ranged in height from 2 to 18 cm (1- to 4-leaf stage) for postemergence treatments.
(§2) Treated plants and controls were maintained in a greenhouse for 14 to 21 days, after which time all species were visually evaluated and compared to controls. Plant response ratings, summarized in Table D, are based on a scale of 0 to 100 where 0 is no effect and 100 is complete control. A dash (-) response means no test result.

[2] = test system: johnsongrass (Sorghum halepense)
Source text: as §1, §2

[3] = test system: goosegrass (Eleusine indica)
Source text: as §1, §2

kochia (Kochia scoparia) = test system: kochia (Kochia scoparia)
Source text: as §1, §2

[4] = test system: purslane (common purslane, Portulaca oleracea)
Source text: as §1, §2

[5] = test system: bluegrass (annual bluegrass, Poa annua)
Source text: as §1, §2

[6] = test system: large crabgrass (Digitaria sanguinalis)
Source text: as §1, §2

[7] = test system: itchgrass (Rottboellia cochinchinensis)
Source text: as §1, §2

[8] = test system: morningglory (pitted morningglory, Ipomoea lacunosa)
Source text: as §1, §2

[9] = test system: chickweed (common chickweed, Stellaria media); conditions: Postemergence, 125 g ai/ha; scale 0 to 100 (0 no effect, 100 complete control)
Source text: as §1, §2

[10] = test system: green foxtail (Setaria viridis)
Source text: as §1, §2

[11] = test system: ragweed (common ragweed, Ambrosia elatior)
Source text: as §1, §2

[12] = test system: sowthistle (common sowthistle, Sonchus oleraceous)
Source text: as §1, §2

[13] = test system: prickly sida (Sida spinosa)
Source text: as §1, §2

[14] = test system: dallisgrass (Paspalum dilatatum)
Source text: as §1, §2

[15] = test system: nutsedge (purple nutsedge, Cyperus rotundus)
Source text: as §1, §2

[16] = Postemergence, 16 g ai/ha, scale 0 to 100
[17] = Postemergence, 31 g ai/ha, scale 0 to 100 (0 no effect, 100 complete control)
[18] = Postemergence, 125 g ai/ha, scale 0 to 100 (0 no effect, 100 complete control)
[19] = Postemergence, 62 g ai/ha, scale 0 to 100 (0 no effect, 100 complete control)
[20] = Preemergence, 16 g ai/ha, scale 0 to 100, 0 no effect, 100 complete control
[21] = Preemergence, 31 g ai/ha, scale 0 to 100 (0 no effect, 100 complete control)
[22] = Preemergence, 62 g ai/ha, scale 0 to 100
[23] = Preemergence, 125 g ai/ha, scale 0 to 100
[24] = Postemergence, 31 g ai/ha, scale 0 to 100

## Cc1ccc(F)c(-n2c(-c3ccccc3)ncc(C(=O)C3=C(O)CCCC3=O)c2=O)c1 [Compound 51]
[1]; [16]
  Plant response rating, Barnyardgrass: 65
[1]; [17]
  Plant response rating, Barnyardgrass: 70
[1]; [18]
  Plant response rating, Barnyardgrass: 70
[1]; [19]
  Plant response rating, Barnyardgrass: 70
[1]; [20]
  Plant response rating, Barnyardgrass: 0
[1]; [21]
  Plant response rating, Barnyardgrass: 0
[1]; [22]
  Plant response rating, Barnyardgrass: 0
[1]; [23]
  Plant response rating, Barnyardgrass: 10
[2]; [16]
  Plant response rating, Johnsongrass: 20
[2]; [24]
  Plant response rating, Johnsongrass: 35
[2]; [18]
  Plant response rating, Johnsongrass: 70
[2]; [19]
  Plant response rating, Johnsongrass: 60
[2]; [20]
  Plant response rating, Johnsongrass: 0
[2]; [21]
  Plant response rating, Johnsongrass: 0
[2]; [22]
  Plant response rating, Johnsongrass: 20
[2]; [23]
  Plant response rating, Johnsongrass: 70
[3]; [16]
  Plant response rating, Goosegrass: 35
[3]; [24]
  Plant response rating, Goosegrass: 65
[3]; [18]
  Plant response rating, Goosegrass: 65
[3]; [19]
  Plant response rating, Goosegrass: 65
[3]; [20]
  Plant response rating, Goosegrass: 20
[3]; [21]
  Plant response rating, Goosegrass: 20
[3]; [22]
  Plant response rating, Goosegrass: 40
[3]; [23]
  Plant response rating, Goosegrass: 40
Kochia (Kochia scoparia); [16]
  Plant response rating, Kochia: 5
Kochia (Kochia scoparia); [24]
  Plant response rating, Kochia: 5
Kochia (Kochia scoparia); [18]
  Plant response rating, Kochia: 20
Kochia (Kochia scoparia); [19]
  Plant response rating, Kochia: 5
Kochia (Kochia scoparia); [20]
  Plant response rating, Kochia: 0
Kochia (Kochia scoparia); [22]
  Plant response rating, Kochia: 0
Kochia (Kochia scoparia); [23]
  Plant response rating, Kochia: 50
[4]; [16]
  Plant response rating, Purslane: 10
[4]; [24]
  Plant response rating, Purslane: 20
[4]; [18]
  Plant response rating, Purslane: 35
[4]; [19]
  Plant response rating, Purslane: 35
[4]; [20]
  Plant response rating, Purslane: 0
[4]; [21]
  Plant response rating, Purslane: 50
[4]; [22]
  Plant response rating, Purslane: 65
[4]; [23]
  Plant response rating, Purslane: 100
[5]; [16]
  Plant response rating, Bluegrass: 0
[5]; [17]
  Plant response rating, Bluegrass: 0
[5]; [18]
  Plant response rating, Bluegrass: 0
[5]; [19]
  Plant response rating, Bluegrass: 0
[5]; [20]
  Plant response rating, Bluegrass: 0
[5]; [21]
  Plant response rating, Bluegrass: 0
[5]; [22]
  Plant response rating, Bluegrass: 0
[5]; [23]
  Plant response rating, Bluegrass: 0
[6]; [16]
  Plant response rating, Crabgrass, Large: 25
[6]; [24]
  Plant response rating, Crabgrass, Large: 35
[6]; [18]
  Plant response rating, Crabgrass, Large: 35
[6]; [19]
  Plant response rating, Crabgrass, Large: 35
[6]; [20]
  Plant response rating, Crabgrass, Large: 0
[6]; [21]
  Plant response rating, Crabgrass, Large: 5
[6]; [22]
  Plant response rating, Crabgrass, Large: 5
[6]; [23]
  Plant response rating, Crabgrass, Large: 5
[7]; [16]
  Plant response rating, Itchgrass: 0
[7]; [24]
  Plant response rating, Itchgrass: 20
[7]; [18]
  Plant response rating, Itchgrass: 80
[7]; [19]
  Plant response rating, Itchgrass: 40
[7]; [20]
  Plant response rating, Itchgrass: 0
[7]; [21]
  Plant response rating, Itchgrass: 0
[7]; [22]
  Plant response rating, Itchgrass: 0
[7]; [23]
  Plant response rating, Itchgrass: 0
[8]; [16]
  Plant response rating, Morningglory: 0
[8]; [24]
  Plant response rating, Morningglory: 20
[8]; [18]
  Plant response rating, Morningglory: 65
[8]; [19]
  Plant response rating, Morningglory: 20
[8]; [20]
  Plant response rating, Morningglory: 0
[8]; [21]
  Plant response rating, Morningglory: 0
[8]; [22]
  Plant response rating, Morningglory: 30
[8]; [23]
  Plant response rating, Morningglory: 100
[9]
  Plant response rating, Chickweed: 70
[10]; [16]
  Plant response rating, Foxtail, Green: 10
[10]; [24]
  Plant response rating, Foxtail, Green: 20
[10]; [18]
  Plant response rating, Foxtail, Green: 65
[10]; [19]
  Plant response rating, Foxtail, Green: 40
[10]; [20]
  Plant response rating, Foxtail, Green: 0
[10]; [21]
  Plant response rating, Foxtail, Green: 0
[10]; [22]
  Plant response rating, Foxtail, Green: 0
[10]; [23]
  Plant response rating, Foxtail, Green: 0
[11]; [16]
  Plant response rating, Ragweed: 60
[11]; [24]
  Plant response rating, Ragweed: 75
[11]; [18]
  Plant response rating, Ragweed: 85
[11]; [19]
  Plant response rating, Ragweed: 80
[11]; [20]
  Plant response rating, Ragweed: 35
[11]; [21]
  Plant response rating, Ragweed: 50
[11]; [23]
  Plant response rating, Ragweed: 95
[12]; [16]
  Plant response rating, Sowthistle: 95
[12]; [24]
  Plant response rating, Sowthistle: 98
[12]; [18]
  Plant response rating, Sowthistle: 100
[12]; [19]
  Plant response rating, Sowthistle: 100
[12]; [20]
  Plant response rating, Sowthistle: 40
[12]; [21]
  Plant response rating, Sowthistle: 75
[12]; [23]
  Plant response rating, Sowthistle: 100
[13]; [16]
  Plant response rating, Prickly Sida: 50
[13]; [24]
  Plant response rating, Prickly Sida: 50
[13]; [18]
  Plant response rating, Prickly Sida: 75
[13]; [19]
  Plant response rating, Prickly Sida: 65
[13]; [20]
  Plant response rating, Prickly Sida: 0
[13]; [21]
  Plant response rating, Prickly Sida: 20
[13]; [22]
  Plant response rating, Prickly Sida: 20
[13]; [23]
  Plant response rating, Prickly Sida: 35
[14]; [16]
  Plant response rating, Dallisgrass: 20
[14]; [24]
  Plant response rating, Dallisgrass: 20
[14]; [18]
  Plant response rating, Dallisgrass: 70
[14]; [19]
  Plant response rating, Dallisgrass: 30
[14]; [20]
  Plant response rating, Dallisgrass: 0
[14]; [21]
  Plant response rating, Dallisgrass: 10
[14]; [22]
  Plant response rating, Dallisgrass: 10
[14]; [23]
  Plant response rating, Dallisgrass: 90
[15]; [16]
  Plant response rating, Nutsedge, Purple: 0
[15]; [24]
  Plant response rating, Nutsedge, Purple: 0
[15]; [18]
  Plant response rating, Nutsedge, Purple: 20
[15]; [19]
  Plant response rating, Nutsedge, Purple: 15
[15]; [20]
  Plant response rating, Nutsedge, Purple: 0
[15]; [21]
  Plant response rating, Nutsedge, Purple: 0
[15]; [22]
  Plant response rating, Nutsedge, Purple: 5
[15]; [23]
  Plant response rating, Nutsedge, Purple: 5
